Reference: patent US8481536B2, “Benzotriazine inhibitors of kinases” (TargeGen, Inc., priority 2004, dated 2013)

Tests used:
Assay type in all cases: biochemical
Recombinant human c-Src = Recombinant human c-Src (Homo sapiens (Human), UniProt P12931); assay: Src kinase inhibition in vitro (luciferase-based residual ATP, KinaseGlo); settings: ATP 3 μM, PTK2 substrate, 90 minutes at room temperature
Experimental: (§1) The ability of compounds of the present invention to inhibit the activity of three groups of kinases was tested. Kinases tested included the src family (primarily src and yes), some angiogenic growth factor receptors (Fgfr1, Vegfr, and Pdgfrβ) and the ephrin, EphB4. All kinase reactions were conducted in 96-well plates with a final reaction volume of 50 ul.
(§2) After reacting for about 90 minutes at room temperature, residual ATP was determined using a luciferase-based assay (KinaseGlo, Promega Corp.) as a measure of kinase activity. Data from four wells were then averaged and used to determine IC50 values for the test compounds (Prism software package, GraphPad Software, San Diego Calif.).
(§3) The test results for inhibition of Src kinase are presented in Table 1, and the test results for inhibition of some other kinases (i.e., Yes, EphB4, and Pdgfrβ) are presented in Table 2.

Pdgfrβ = Pdgfrβ (Homo sapiens (Human), UniProt P09619); assay: Pdgfrβ kinase inhibition in vitro (luciferase-based residual ATP); settings: 500 nM ATP, PTK2 peptide, 60 minutes at 37 C; read-out: PDGFR IC50
Experimental: as §1
Pdgfrβ (0.16 ug/well, Panvera/Invitrogen) 500 nM ATP and the PTK2 peptide (700 uM) were combined with compound and reaction buffer as noted above for src. The reaction was incubated for 60 minutes at 37 C, and the residual ATP concentration was determined using the luciferase-based technique also noted above.
as §3

Recombinant human Yes = Recombinant human Yes (Homo sapiens (Human), UniProt P07947); assay: Yes kinase inhibition in vitro (luciferase-based residual ATP, KinaseGlo); settings: ATP 3 μM, PTK2 substrate, 90 minutes at room temperature
Experimental: as §1, §2, §3

EphB4 = EphB4 (Homo sapiens (Human), UniProt P54760); assay: EphB4 kinase inhibition in vitro (luciferase-based residual ATP); settings: 6 uM ATP, poly(glu4tyr), 60 minutes at 37 C
Experimental: as §1, §3

Recombinant human c-Src, sequence (P12931 whole entry, looked up): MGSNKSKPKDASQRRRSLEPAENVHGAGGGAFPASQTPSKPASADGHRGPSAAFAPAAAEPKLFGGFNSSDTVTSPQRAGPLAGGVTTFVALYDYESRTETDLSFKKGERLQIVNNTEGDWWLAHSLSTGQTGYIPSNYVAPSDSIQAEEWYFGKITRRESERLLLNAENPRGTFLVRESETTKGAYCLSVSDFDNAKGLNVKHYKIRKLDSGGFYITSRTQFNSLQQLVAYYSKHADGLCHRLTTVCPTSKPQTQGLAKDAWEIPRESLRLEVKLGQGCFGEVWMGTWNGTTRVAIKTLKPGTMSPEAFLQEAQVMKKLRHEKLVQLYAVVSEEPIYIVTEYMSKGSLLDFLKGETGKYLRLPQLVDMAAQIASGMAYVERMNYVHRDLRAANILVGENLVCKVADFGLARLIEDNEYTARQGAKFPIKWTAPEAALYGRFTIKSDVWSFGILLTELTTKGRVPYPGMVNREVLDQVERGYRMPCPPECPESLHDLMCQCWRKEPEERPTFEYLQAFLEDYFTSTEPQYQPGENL
Pdgfrβ, sequence (P09619 33-1106): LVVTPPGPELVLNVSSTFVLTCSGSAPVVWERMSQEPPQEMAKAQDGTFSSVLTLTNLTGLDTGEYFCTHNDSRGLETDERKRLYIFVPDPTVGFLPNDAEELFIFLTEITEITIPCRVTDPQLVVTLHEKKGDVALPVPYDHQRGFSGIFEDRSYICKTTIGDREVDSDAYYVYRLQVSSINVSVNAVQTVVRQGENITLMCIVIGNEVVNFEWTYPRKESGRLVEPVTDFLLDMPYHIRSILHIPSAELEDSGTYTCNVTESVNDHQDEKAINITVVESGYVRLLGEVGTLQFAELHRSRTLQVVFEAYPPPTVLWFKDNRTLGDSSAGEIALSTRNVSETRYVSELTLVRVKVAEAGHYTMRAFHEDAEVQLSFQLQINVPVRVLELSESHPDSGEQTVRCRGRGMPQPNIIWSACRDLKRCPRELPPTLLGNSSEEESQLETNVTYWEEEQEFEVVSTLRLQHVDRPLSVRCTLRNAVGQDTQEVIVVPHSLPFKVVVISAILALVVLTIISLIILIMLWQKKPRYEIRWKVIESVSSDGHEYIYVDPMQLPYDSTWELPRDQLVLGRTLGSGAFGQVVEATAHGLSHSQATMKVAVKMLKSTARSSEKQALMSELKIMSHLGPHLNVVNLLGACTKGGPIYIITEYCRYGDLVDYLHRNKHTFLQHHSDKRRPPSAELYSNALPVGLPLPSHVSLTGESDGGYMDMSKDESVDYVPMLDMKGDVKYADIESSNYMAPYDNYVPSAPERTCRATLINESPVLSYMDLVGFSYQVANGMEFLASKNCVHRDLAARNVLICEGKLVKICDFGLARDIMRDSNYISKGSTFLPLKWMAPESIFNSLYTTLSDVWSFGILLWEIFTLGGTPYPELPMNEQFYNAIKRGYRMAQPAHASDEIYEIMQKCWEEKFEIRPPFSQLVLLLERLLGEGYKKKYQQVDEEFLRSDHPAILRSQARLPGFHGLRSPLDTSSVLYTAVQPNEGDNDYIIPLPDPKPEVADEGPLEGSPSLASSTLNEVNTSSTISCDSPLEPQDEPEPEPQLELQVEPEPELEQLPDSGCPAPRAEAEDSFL
Recombinant human Yes, sequence (P07947 whole entry): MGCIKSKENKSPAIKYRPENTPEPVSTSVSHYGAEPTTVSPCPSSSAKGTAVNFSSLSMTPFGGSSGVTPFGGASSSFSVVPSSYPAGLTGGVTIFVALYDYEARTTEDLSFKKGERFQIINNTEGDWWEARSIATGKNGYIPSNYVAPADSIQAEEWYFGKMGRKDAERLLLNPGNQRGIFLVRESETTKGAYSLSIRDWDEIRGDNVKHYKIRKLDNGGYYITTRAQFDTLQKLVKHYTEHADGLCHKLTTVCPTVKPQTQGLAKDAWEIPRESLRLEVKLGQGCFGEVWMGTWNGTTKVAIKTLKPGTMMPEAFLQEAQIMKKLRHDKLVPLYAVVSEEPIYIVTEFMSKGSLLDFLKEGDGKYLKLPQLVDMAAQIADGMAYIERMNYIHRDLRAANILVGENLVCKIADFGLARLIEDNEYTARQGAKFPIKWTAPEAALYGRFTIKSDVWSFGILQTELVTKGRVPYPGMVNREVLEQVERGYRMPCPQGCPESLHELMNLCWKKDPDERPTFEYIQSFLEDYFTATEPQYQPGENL
EphB4, sequence (P54760 16-987): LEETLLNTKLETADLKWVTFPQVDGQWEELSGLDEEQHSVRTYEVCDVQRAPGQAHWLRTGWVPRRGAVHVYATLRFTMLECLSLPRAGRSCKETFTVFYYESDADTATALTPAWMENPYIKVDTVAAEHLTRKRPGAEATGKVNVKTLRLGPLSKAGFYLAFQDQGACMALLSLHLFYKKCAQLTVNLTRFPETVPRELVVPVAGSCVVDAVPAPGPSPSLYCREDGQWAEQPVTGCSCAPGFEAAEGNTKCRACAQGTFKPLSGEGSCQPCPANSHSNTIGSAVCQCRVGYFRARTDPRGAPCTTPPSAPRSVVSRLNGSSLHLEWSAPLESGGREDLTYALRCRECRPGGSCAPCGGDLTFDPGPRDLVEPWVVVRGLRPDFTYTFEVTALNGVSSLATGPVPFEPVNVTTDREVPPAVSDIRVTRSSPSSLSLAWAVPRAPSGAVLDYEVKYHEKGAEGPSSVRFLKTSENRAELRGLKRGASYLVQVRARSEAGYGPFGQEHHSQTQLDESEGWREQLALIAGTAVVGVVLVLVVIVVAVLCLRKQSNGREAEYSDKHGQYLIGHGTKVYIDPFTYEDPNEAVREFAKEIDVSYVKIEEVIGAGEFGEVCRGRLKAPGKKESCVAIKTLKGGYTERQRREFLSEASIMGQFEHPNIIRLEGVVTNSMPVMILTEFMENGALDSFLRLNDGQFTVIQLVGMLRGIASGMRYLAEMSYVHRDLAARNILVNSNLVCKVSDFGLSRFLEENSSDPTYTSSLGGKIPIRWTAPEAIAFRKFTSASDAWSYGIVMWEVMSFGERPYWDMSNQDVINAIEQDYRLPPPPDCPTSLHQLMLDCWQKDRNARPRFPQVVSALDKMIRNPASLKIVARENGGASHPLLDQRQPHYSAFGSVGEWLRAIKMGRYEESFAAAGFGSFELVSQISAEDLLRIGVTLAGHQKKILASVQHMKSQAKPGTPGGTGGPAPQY

| Compound | IC50 (Recombinant human c-Src) [nM] | IC50 (Pdgfrβ) [nM] | IC50 (Recombinant human Yes) [nM] | IC50 (EphB4) [nM] |
| --- | --- | --- | --- | --- |
| Cc1ccccc1-c1cc2nnc(Nc3ccc(S(=O)(=O)NCCN4CCCC4)cc3)nc2cc1C [4-(6-methyl-7-o-tolyl-benzo[1,2,4]triazin-3-ylamino)-N-(2-pyrrolidin-1-yl-ethyl)-benzenesulfonamide] | 10.2 | 24.3 | – | – |
| Cc1cc2nc(Nc3ccc(S(=O)(=O)NCCN4CCCC4)cc3)nnc2cc1-c1c(C)cccc1C [4-[7-(2,6-dimethyl-phenyl)-6-methyl-benzo[1,2,4]triazin-3-ylamino]-N-(2-pyrrolidin-1-yl-ethyl)-benzenesulfonamide] | 10.5 | 48.1 | – | – |
| Cc1cc(F)ccc1-c1cc2nnc(Nc3ccc(S(=O)(=O)NCCN4CCCC4)cc3)nc2cc1C [4-[7-(4-fluoro-2-methyl-phenyl)-6-methyl-benzo[1,2,4]triazin-3-ylamino]-N-(2-pyrrolidin-1-yl-ethyl)-benzenesulfonamide] | 20.4 | 73.7 | – | – |
| CC(=O)Nc1cc(-c2c(C)cccc2C)cc2nnc(Nc3ccc(OCCN4CCCC4)cc3)nc12 [N-{7-(2,6-dimethyl-phenyl)-3-[4-(2-pyrrolidin-1-yl-ethoxy)-phenylamino]-benzo[1,2,4]triazin-5-yl}-acetamide] | 6.8 | 11.5 | – | – |
| Cc1cccc(C)c1-c1cc(NS(C)(=O)=O)c2nc(Nc3ccc(OCCN4CCCC4)cc3)nnc2c1 [N-{7-(2,6-dimethyl-phenyl)-3-[4-(2-pyrrolidin-1-yl-ethoxy)-phenylamino]-benzo[1,2,4]triazin-5-yl}-methanesulfonamide] | 20.4 | 15.7 | – | – |
| Cc1cccc(C)c1-c1cc(C)c2nc(Nc3cccc(S(=O)(=O)N4CCN(C)CC4)c3)nnc2c1 [[7-(2,6-dimethyl-phenyl)-5-methyl-benzo[1,2,4]triazin-3-yl]-[3-(4-methyl-piperazine-1-sulfonyl)-phenyl]-amine] | 322 | 81.3 | – | – |
| Cc1cccc(C)c1-c1cc(C)c2nc(Nc3cccc(OCCN4CCN(C)CC4)c3)nnc2c1 [[7-(2,6-dimethyl-phenyl)-5-methyl-benzo[1,2,4]triazin-3-yl]-{3-[2-(4-methyl-piperazin-1-yl)-ethoxy]-phenyl}-amine] | 39.5 | 69.1 | – | – |
| Cc1cc(-c2cc(O)ccc2Cl)cc2nnc(Nc3ccc(OCCN4CCCC4)cc3)nc12 [[7-(2-chloro-5-hydroxy-phenyl)-5-methyl-benzo[1,2,4]triazin-3-yl]-[4-(2-pyrrolidine-1-yl-ethoxy)-phenyl]-amine] | 1.6 | 1.1 | 0.5 | 15.9 |
| Cc1cc2nc(Nc3ccc(C(=O)N4CCN(C)CC4)cc3)nnc2cc1-c1cc(O)ccc1Cl [{4-[7-(2-chloro-5-hydroxy-phenyl)-6-methyl-benzo[1,2,4]triazin-3-ylamino]-phenyl}-(4-methyl-piperazin-1-yl)-methanone] | – | 3.7 | – | – |
| COc1ccc(Cl)c(-c2cc3nnc(Nc4ccc(C(=O)N5CCN(C)CC5)cc4)nc3cc2C)c1 [{4-[7-(2-chloro-5-methoxy-phenyl)-6-methyl-benzo[1,2,4]triazin-3-ylamino]-phenyl}-(4-methyl-piperazin-1-yl)-methanone] | – | 3.5 | – | – |
| Cc1ccc(Cl)cc1-c1cc2nnc(Nc3ccc(C(=O)N4CCN(C)CC4)cc3)nc2cc1C [{4-[7-(5-chloro-2-methyl-phenyl)-6-methyl-benzo[1,2,4]triazin-3-ylamino]-phenyl}-(4-methyl-piperazin-1-yl)-methanone] | – | 6 | – | – |
